Data from US8680012B2, “4-phenyl-pyrane-3,5-diones,4-phenyl-thiopyrane-3,6-diones and cyclohexanetriones as novel herbicides” (Syngenta Crop Protection LLC, priority 2006, dated 2014).

tested on: Avena fatua (AVEFA); test: Example A pre-emergence herbicidal activity, glasshouse pot test; format: in vivo; conditions: 480 h, rate 250 g/ha, evaluated 20 days after spraying, read-out: Pre-emergence activity AVEFA (100=total damage to plant; 0=no damage to plant)
Procedure: (§1) Seeds of a variety of test species were sown in standard soil in pots. After cultivation for one day (pre-emergence) or after 10 days cultivation (post-emergence) under controlled conditions in a glasshouse, the plants were sprayed with an aqueous spray solution derived from the formulation of the technical active ingredient in 0.6 ml acetone and 45 ml formulation solution containing 10.6% Emulsogen EL (Registry number 61791-12-6), 42.2% N-methylpyrrolidone, 42.2% dipropylene glycol monomethyl ether (Registry number 34590-94-8) and 0.2% X-77 (Registry number 11097-66-8). The test plants were then grown in a greenhouse under optimum conditions until, 15 days later for post-emergence and 20 days for pre-emergence, the test was evaluated (100=total damage to plant; 0=no damage to plant).
(§2) Alopecurus myosuroides (ALOMY), Avena fatua (AVEFA), Lolium perenne (LOLPE), Setaria faberi (SETFA), Digitaria sanguinalis (DIGSA), Echinochloa crus-galli (ECHCG)

Structure (SMILES) | pest or weed control at 250 g/ha
Cc1ccc(-c2ccc(C(F)(F)F)cc2)cc1C1=C(O)C(C)(C)OC(C)(C)C1=O [Compound A-10] | 50%

same assay, conditions: 480 h, rate 500 g/ha, evaluated 20 days after spraying, read-out: Pre-emergence activity AVEFA (100=total damage to plant; 0=no damage to plant)

Structure (SMILES) | pest or weed control at 500 g/ha
Cc1ccc(-c2ccc(Cl)cc2)cc1C1=C(O)COC(C)(C)C1=O (single isomer, unassigned) [Compound A-1] | 10%

tested on: Setaria faberi (SETFA); test: as above; format: in vivo; conditions: 480 h, rate 250 g/ha, evaluated 20 days after spraying, read-out: Pre-emergence activity SETFA (100=total damage to plant; 0=no damage to plant)
Procedure: as §1, §2

Structure (SMILES) | pest or weed control at 250 g/ha
Cc1ccc(-c2ccc(C(F)(F)F)cc2)cc1C1=C(O)C(C)(C)OC(C)(C)C1=O [Compound A-10] | 100%

same assay, conditions: 480 h, rate 500 g/ha, evaluated 20 days after spraying, read-out: Pre-emergence activity SETFA (100=total damage to plant; 0=no damage to plant)

Structure (SMILES) | pest or weed control at 500 g/ha
Cc1ccc(-c2ccc(Cl)cc2)cc1C1=C(O)COC(C)(C)C1=O (single isomer, unassigned) [Compound A-1] | 70%

tested on: Lolium perenne (LOLPE); test: as above; format: in vivo; conditions: 480 h, rate 250 g/ha, evaluated 20 days after spraying, read-out: Pre-emergence activity LOLPE (100=total damage to plant; 0=no damage to plant)
Procedure: as §1, §2

Structure (SMILES) | pest or weed control at 250 g/ha
Cc1ccc(-c2ccc(C(F)(F)F)cc2)cc1C1=C(O)C(C)(C)OC(C)(C)C1=O [Compound A-10] | 60%

same assay, conditions: 480 h, rate 500 g/ha, evaluated 20 days after spraying, read-out: Pre-emergence activity LOLPE (100=total damage to plant; 0=no damage to plant)

Structure (SMILES) | pest or weed control at 500 g/ha
Cc1ccc(-c2ccc(Cl)cc2)cc1C1=C(O)COC(C)(C)C1=O (single isomer, unassigned) [Compound A-1] | 10%

tested on: Digitaria sanguinalis (DIGSA); test: as above; format: in vivo; conditions: 480 h, rate 250 g/ha, evaluated 20 days after spraying, read-out: Pre-emergence activity DIGSA (100=total damage to plant; 0=no damage to plant)
Procedure: as §1, §2

Structure (SMILES) | pest or weed control at 250 g/ha
Cc1ccc(-c2ccc(C(F)(F)F)cc2)cc1C1=C(O)C(C)(C)OC(C)(C)C1=O [Compound A-10] | 100%

same assay, conditions: 480 h, rate 500 g/ha, evaluated 20 days after spraying, read-out: Pre-emergence activity DIGSA (100=total damage to plant; 0=no damage to plant)

Structure (SMILES) | pest or weed control at 500 g/ha
Cc1ccc(-c2ccc(Cl)cc2)cc1C1=C(O)COC(C)(C)C1=O (single isomer, unassigned) [Compound A-1] | 70%

tested on: Alopecurus myosuroides (ALOMY); test: as above; format: in vivo; conditions: 480 h, rate 250 g/ha, evaluated 20 days after spraying, read-out: Pre-emergence activity ALOMY (100=total damage to plant; 0=no damage to plant)
Procedure: as §1, §2

Structure (SMILES) | pest or weed control at 250 g/ha
Cc1ccc(-c2ccc(C(F)(F)F)cc2)cc1C1=C(O)C(C)(C)OC(C)(C)C1=O [Compound A-10] | 40%

same assay, conditions: 480 h, rate 500 g/ha, evaluated 20 days after spraying, read-out: Pre-emergence activity ALOMY (100=total damage to plant; 0=no damage to plant)

Structure (SMILES) | pest or weed control at 500 g/ha
Cc1ccc(-c2ccc(Cl)cc2)cc1C1=C(O)COC(C)(C)C1=O (single isomer, unassigned) [Compound A-1] | 40%

tested on: Echinochloa crus-galli (ECHCG); test: as above; format: in vivo; conditions: 480 h, rate 250 g/ha, evaluated 20 days after spraying, read-out: Pre-emergence activity ECHCG (100=total damage to plant; 0=no damage to plant)
Procedure: as §1, §2

Structure (SMILES) | pest or weed control at 250 g/ha
Cc1ccc(-c2ccc(C(F)(F)F)cc2)cc1C1=C(O)C(C)(C)OC(C)(C)C1=O [Compound A-10] | 100%

same assay, conditions: 480 h, rate 500 g/ha, evaluated 20 days after spraying, read-out: Pre-emergence activity ECHCG (100=total damage to plant; 0=no damage to plant)

Structure (SMILES) | pest or weed control at 500 g/ha
Cc1ccc(-c2ccc(Cl)cc2)cc1C1=C(O)COC(C)(C)C1=O (single isomer, unassigned) [Compound A-1] | 50%

tested on: Avena fatua (AVEFA); test: Example A post-emergence herbicidal activity, glasshouse pot test; format: in vivo; conditions: 360 h, rate 125 g/ha, evaluated 15 days after spraying, read-out: Post-emergence activity AVEFA (100=total damage to plant; 0=no damage to plant)
Procedure: as §1, §2

Structure (SMILES) | pest or weed control at 125 g/ha
Cc1ccc(-c2ccc(Cl)cc2)cc1C1=C(O)COC(C)(C)C1=O (single isomer, unassigned) [Compound A-1] | 0%
Cc1ccc(-c2ccc(C(F)(F)F)cc2)cc1C1=C(O)C(C)(C)OC(C)(C)C1=O [Compound A-10] | 20%

tested on: Setaria faberi (SETFA); test: as above; format: in vivo; conditions: 360 h, rate 125 g/ha, evaluated 15 days after spraying, read-out: Post-emergence activity SETFA (100=total damage to plant; 0=no damage to plant)
Procedure: as §1, §2

Structure (SMILES) | pest or weed control at 125 g/ha
Cc1ccc(-c2ccc(Cl)cc2)cc1C1=C(O)COC(C)(C)C1=O (single isomer, unassigned) [Compound A-1] | 50%
Cc1ccc(-c2ccc(C(F)(F)F)cc2)cc1C1=C(O)C(C)(C)OC(C)(C)C1=O [Compound A-10] | 50%

tested on: Lolium perenne (LOLPE); test: as above; format: in vivo; conditions: 360 h, rate 125 g/ha, evaluated 15 days after spraying, read-out: Post-emergence activity LOLPE (100=total damage to plant; 0=no damage to plant)
Procedure: as §1, §2

Structure (SMILES) | pest or weed control at 125 g/ha
Cc1ccc(-c2ccc(Cl)cc2)cc1C1=C(O)COC(C)(C)C1=O (single isomer, unassigned) [Compound A-1] | 80%
Cc1ccc(-c2ccc(C(F)(F)F)cc2)cc1C1=C(O)C(C)(C)OC(C)(C)C1=O [Compound A-10] | 0%

tested on: Digitaria sanguinalis (DIGSA); test: as above; format: in vivo; conditions: 360 h, rate 125 g/ha, evaluated 15 days after spraying, read-out: Post-emergence activity DIGSA (100=total damage to plant; 0=no damage to plant)
Procedure: as §1, §2

Structure (SMILES) | pest or weed control at 125 g/ha
Cc1ccc(-c2ccc(Cl)cc2)cc1C1=C(O)COC(C)(C)C1=O (single isomer, unassigned) [Compound A-1] | 0%
Cc1ccc(-c2ccc(C(F)(F)F)cc2)cc1C1=C(O)C(C)(C)OC(C)(C)C1=O [Compound A-10] | 100%

tested on: Alopecurus myosuroides (ALOMY); test: as above; format: in vivo; conditions: 360 h, rate 125 g/ha, evaluated 15 days after spraying, read-out: Post-emergence activity ALOMY (100=total damage to plant; 0=no damage to plant)
Procedure: as §1, §2

Structure (SMILES) | pest or weed control at 125 g/ha
Cc1ccc(-c2ccc(Cl)cc2)cc1C1=C(O)COC(C)(C)C1=O (single isomer, unassigned) [Compound A-1] | 10%
Cc1ccc(-c2ccc(C(F)(F)F)cc2)cc1C1=C(O)C(C)(C)OC(C)(C)C1=O [Compound A-10] | 30%

tested on: Echinochloa crus-galli (ECHCG); test: as above; format: in vivo; conditions: 360 h, rate 125 g/ha, evaluated 15 days after spraying, read-out: Post-emergence activity ECHCG (100=total damage to plant; 0=no damage to plant)
Procedure: as §1, §2

Structure (SMILES) | pest or weed control at 125 g/ha
Cc1ccc(-c2ccc(Cl)cc2)cc1C1=C(O)COC(C)(C)C1=O (single isomer, unassigned) [Compound A-1] | 70%
Cc1ccc(-c2ccc(C(F)(F)F)cc2)cc1C1=C(O)C(C)(C)OC(C)(C)C1=O [Compound A-10] | 100%
